# Test results taken from patent US7090853B2, “Noscapine derivatives as adjuvant compositions and methods of use thereof” (Emory University, priority 1999, dated 2006).
# Entries after “also recorded” stand apart in the source; their conditions may differ.
# Assays:
# [1] = system: E.G7-OVA cells; test: Inhibition of E.G7-OVA tumor growth, i.p. or i.g. dosing; assay type: in vivo, C57BL/6 mice
# Description: C57BL/6 mice were injected subcutaneously in the right flank with 2×10^6 E.G7-OVA cells. Three days later, mice were injected intraperitoneally, every day for three weeks, either with 200 μl saline (n=10), or with 3 mg noscapine dissolved in 200 μl saline (n=10). Third group of mice (n=10) was fed 3 mg noscapine via intragastric (i.g.) intubation using a 1 ml syringe fitted with a 20 gauge stainless steel ball point needle. After three weeks, all mice were sacrificed by cervical dislocation. Tumors were removed and weighed. Tumor weights were individually plotted and comparisons between control and treatment groups were analyzed by the Student's t test.
# [2] = target: bovine brain tubulin (Bos taurus, UniProt P81947+Q6B856); test: Fluorescence titration of tubulin binding (Scatchard plot)
# bovine brain tubulin, sequence (P81947 whole entry): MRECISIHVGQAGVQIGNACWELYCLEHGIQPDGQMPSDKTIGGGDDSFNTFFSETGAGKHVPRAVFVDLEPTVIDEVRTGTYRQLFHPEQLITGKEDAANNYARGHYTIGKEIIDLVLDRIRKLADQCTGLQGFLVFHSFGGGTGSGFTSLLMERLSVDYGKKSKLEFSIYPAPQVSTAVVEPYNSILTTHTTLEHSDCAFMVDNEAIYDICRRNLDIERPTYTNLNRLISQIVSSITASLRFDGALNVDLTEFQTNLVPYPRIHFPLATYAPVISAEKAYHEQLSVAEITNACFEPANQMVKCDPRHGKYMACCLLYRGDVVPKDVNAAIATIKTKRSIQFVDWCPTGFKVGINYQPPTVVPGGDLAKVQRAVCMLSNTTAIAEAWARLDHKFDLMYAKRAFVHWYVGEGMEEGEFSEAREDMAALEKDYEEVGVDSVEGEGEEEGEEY
# bovine brain tubulin, sequence (Q6B856 whole entry): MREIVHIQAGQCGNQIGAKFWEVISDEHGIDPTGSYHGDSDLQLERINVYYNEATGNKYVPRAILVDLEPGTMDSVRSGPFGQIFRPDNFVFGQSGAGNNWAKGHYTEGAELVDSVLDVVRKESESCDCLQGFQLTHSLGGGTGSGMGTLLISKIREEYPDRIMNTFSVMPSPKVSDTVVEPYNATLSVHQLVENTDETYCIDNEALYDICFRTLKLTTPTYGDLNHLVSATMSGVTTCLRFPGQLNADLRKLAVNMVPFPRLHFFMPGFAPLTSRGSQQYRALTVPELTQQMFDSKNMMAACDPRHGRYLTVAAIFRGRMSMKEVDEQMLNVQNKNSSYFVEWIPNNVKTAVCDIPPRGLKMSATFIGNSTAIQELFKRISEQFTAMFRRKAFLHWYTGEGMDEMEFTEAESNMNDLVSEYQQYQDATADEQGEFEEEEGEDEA
# Description: Phosphocellulose purified bovine brain tubulin was employed throughout these biophysical experiments. Fluorescence titration for determining binding constants was performed according to Peyrot, V. et al., Biochemistry 31, 11125 (1992). […], at room temperature, 2 μM tubulin in 100 mM PIPES, 2 mM EGTA, 1 mM MgCl2 was excited at 278 nm, and the fluorescence emission spectra were recorded with bandwidths […]. The fluorescence emission intensity of noscapine at this excitation wavelength was negligible and at the concentration of noscapine used it gave no appreciable inner filter effect. The concentration of noscapine was raised in increments of 0.5 μM, until the decrease in the fluorescence intensity was saturated. The value of the dissociation constant and the number of sites were obtained from Scatchard plots using the equation, r/[L]free=n/K^d−r/Kd, where r is the ratio of the concentration of bound ligand to the total protein concentration and n is the number of binding sites. […] Microtubule assembly was recorded on a spectrophotometer with thermocontroler, The cuvettes (0.4 cm path) containing 100 mM PIPES, 2 mM EGTA, 1 mM MgCl2 and 1 mM GTP (G-PEM buffer), and 20 μM noscapine/DMSO were kept at room temperature before addition of tubulin and shifting to 37° C. […] The assembly was monitored by measuring the changes in turbidity at […]. intervals. […]
# [3] = system: E.G7-OVA tumor cells; test: Survival and tumor regression of E.G7-OVA tumor-bearing mice, noscapine in drinking water; assay type: in vivo, C57BL/6 mice
# Description: C57BL/6 mice were injected s.c. with 2×10^6 E.G7-OVA tumor cells. Three days later, two groups received the indicated dose of noscapine in their drinking water. There were 5 mice/group. Untreated mice survived from 6 to 7 weeks after tumor inoculation. In marked contrast, the majority of the mice treated with 1.5 or 3.0 mg/ml Noscapine survived for greater than 16 weeks when the experiment was terminated.
# FIGS. 3A–3I show B6 mice were injected subcutaneously with 2×10^6 E.G7-OVA tumor cells and after three days half of the mice were treated continuously with 1.5 or 3.0 mg noscapine/ml of drinking water. All of the untreated mice developed tumors and were euthanized after three weeks. […] Normal B6 mice (A–C) and mice treated for 3 months with noscapine (D–F) were euthanized.
# To test whether E.G7-OVA tumor induced tolerance, tumors were ablated by treating the mice with noscapine in the drinking water beginning three days after tumor transplantation. Tumors grew in all mice that had received E.G7-OVA without noscapine.
# [4] = system: EL4 thymocytes; test: M phase arrest, alpha-tubulin immunofluorescence and flow cytometry; assay type: cell-based; conditions: thymocyte cells, 20 μM Noscapine, 24 hr
# Description: (§1) Hela cells were grown in DMEM supplemented with 10% fetal calf serum, 1 mM L-glutamine and 1% penicillin/−streptomycin. The tumor cell line E.G7-OVA (H-2^b) [Moore, M. W., et al., Cell 54,777 (1988)] was grown in RPMI 1640 with 10% fetal calf serum, 1% sodium pyruvate, 1 mM L-glutamine, 0.1% gentamycin, 50 μM β-mercaptoethanol. Cells were grown at 37° C. in a 5% CO2 atmosphere. Cell viability was assessed by trypan blue exclusion analysis. Cell numbers were determined using a hemacytometer. C57BL/6(H-2^b) mice, 8 to 12 weeks of age, were obtained from Harian Sprague Dawley, Inc. (Indiananapolis, Ind.). Mice were maintained on standard laboratory chow and water ad libitum in a temperature and light controlled environment. For immunofluorescence, both Hela and thymocyte cells were treated identically except the Hela cells were grown onto glass coverslips while EL4 thymocytes were put on glass coverslips after fixation. Cells in 10 ml medium were incubated with 2 μl DMSO or 20 μM Noscapine (2 μl 0.1 M DMSO solution) respectively. After 24 hr, cells were fixed with cold (−20° C.) methanol for 5 min., then rehydrated by PBS for 1 min. Nonspecific sites were blocked by incubating with 200 μl of 1% bovine serum albumin (BSA) in phosphate buffered saline (PBS) at 37° C. for 15 minutes. […] Cells were examined with a fluorescence microscope. […] The samples were read on a cytometer.
# [5] = system: Hela cells; test: as above; assay type: cell-based; conditions: 20 μM Noscapine, 24 hr
# Description: as §1
smiles,measurement,setting,value
COc1ccc2c(c1OC)C(=O)O[C@@H]2[C@H]1c2c(cc3c(c2OC)OCO3)CCN1C [Noscapine],tumor weight,"[1]; 3 mg noscapine i.p. or i.g. every day for three weeks, vs saline",significantly reduced tumor weight
same,tumor cell growth and apoptosis of E.G7-OVA in vivo,[1]; given parenterally or by gastric gavage,arrested tumor cell growth and induced apoptosis
same,stoichiometry,[2]; Scatchard plot,0.95±0.02 noscapine molecule per complex of tubulin subunit
same,quenching of tubulin fluorescence,[2]; excitation 278 nm,fluorescence quenching of tubulin
same,tumor regression,"[3]; 1.5 or 3.0 mg noscapine/ml of drinking water, continuous",disappeared and did not return during four months of continuous treatment; also recorded: majority of tumors in mice treated with noscapine regress
same,survival after tumor inoculation,"[3]; majority of mice, 1.5 or 3.0 mg/ml in drinking water from day 3, experiment terminated at 16 weeks",greater than 16 weeks
same,M phase arrest of microtubule arrays,[4],arrested in M phase
same,M phase arrest of microtubule arrays,[5],arrested in M phase
